In US10301320B2, “Compositions and methods of modulating 15-PGDH activity” (CASE WESTERN RESERVE UNIVERSITY, priority 2012, dated 2019):
Like-named read-outs stand apart in the source and are kept apart here.

How the values were obtained:
[1] = test system: V9m reporter cell line expressing a 15-PGDH luciferase fusion construct; assay: 15-PGDH-luciferase fusion gene reporter induction, V9m cell line; type: cell-based; conditions: for percent reporter induction over basal at […]: read-out: V9M-SC3 Reporter activity % ([…]), Table 18, read-out: V9M-SC3 Reporter activity % (7.5 μM)
Excerpt: (§1) These cell lines are Vaco-9m (V9m), LS174T, Vaco503 (V503). […] Value of 1.0 on the Y-axis is the basal level of reporter activity in cells treated with drug free DMSO vehicle.
(§2) This Example provides data on a group of structural analogues of SW033291. Data provided includes level of induction of a 15-PGDH-luciferase fusion gene reporter, recorded as % increased luciferase activity over basal level, in three colon cancer cell lines, V9m, V503, and LS174T, engineered to contain the reporter, and treated with either 2.5 uM or 7.5 uM compound (i.e., Values are recorded on a scale where 100 indicates of doubling of luciferase activity over baseline level).
(§3) FIGS. 27(A-C) show graphs that show the level of compound's activity in inducing the 15-PGDH-luciferase fusion reporter in three different test cell line backgrounds, V9m, LS174T, and V503. Each compound was tested at two concentrations, 2.5 uM, and 7.5 uM. Y-axis is luciferase activity.
(§4) Data provided include level of induction of a 15-PGDH-luciferase fusion gene reporter, recorded as % induction of luciferase activity over basal level, in three colon cancer cell lines, V9m, V503, and LS174T, engineered to contain the reporter, and treated with either 2.5 uM or 7.5 uM compound. […] Additionally, for selected compounds is recorded the decrease in PGE2 levels in the media of compound treated A549 cells that have been stimulated with IL-1 beta. Additionally recorded for selected compounds is the effect on A549 cell viability as measured by a CellTiter-Glo assay, and the effect of compounds on A549 cell colony formation.

[2] = test system: LS174T reporter cell line expressing a 15-PGDH luciferase fusion construct; assay: 15-PGDH-luciferase fusion gene reporter induction, LS174T cell line; type: cell-based; conditions: Homo sapiens
Excerpt: as §1, §2, §3, §4

[3] = test system: Vaco503 reporter cell line expressing a 15-PGDH luciferase fusion construct; assay: 15-PGDH-luciferase fusion gene reporter induction, Vaco503 (V503) cell line; type: cell-based
Excerpt: as §1, §2, §3, §4

[4] = target: recombinant 15-PGDH protein (Homo sapiens (Human), UniProt P15428); assay: Inhibition of enzymatic activity of recombinant 15-PGDH in vitro; type: biochemical;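 note: activity of recombinant human 15-PGDH assayed in vitro using PGE2 as the substrate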
[5] = read-out: V9M reporter activity ([…]), […], % increased luciferase activity over basal level, 100 = doubling, read-out: V9M reporter activity (2.5 uM)
[6] = read-out: Enzyme inhibition % ([…]), Table 18, […] compound, read-out: Enzyme inhibition % (2.5 μM)
[7] = read-out: Enzyme inhibition % ([…]), Table 18, […] compound, read-out: Enzyme inhibition % (7.5 μM)
[8] = read-out: V9M reporter activity ([…]), Table 17, […], % induction over basal level, read-out: V9M reporter activity (2.5 μM)
[9] = read-out: V9M reporter activity ([…]), Table 17, […], read-out: V9M reporter activity (7.5 μM)
[10] = read-out: 1S174T reporter activity ([…]), Table 17, […], read-out: 1S174T reporter activity (7.5 μM)
[11] = read-out: LS174T reporter activity ([…]), Table 17, […], read-out: LS174T reporter activity (2.5 μM)
[12] = read-out: V503 reporter activity ([…]), Table 17, […], read-out: V503 reporter activity (2.5 μM)
[13] = read-out: V503 reporter activity ([…]), Table 17, […], read-out: V503 reporter activity (7.5 μM)
[14] = read-out: Enzyme inhibition % ([…]), recombinant 15-PGDH, […] compound, read-out: Enzyme inhibition % (2.5 μM)
[15] = read-out: Enzyme inhibition % ([…]), recombinant 15-PGDH, […] compound, read-out: Enzyme inhibition % (7.5 μM)

recombinant 15-PGDH protein, sequence (P15428 whole entry): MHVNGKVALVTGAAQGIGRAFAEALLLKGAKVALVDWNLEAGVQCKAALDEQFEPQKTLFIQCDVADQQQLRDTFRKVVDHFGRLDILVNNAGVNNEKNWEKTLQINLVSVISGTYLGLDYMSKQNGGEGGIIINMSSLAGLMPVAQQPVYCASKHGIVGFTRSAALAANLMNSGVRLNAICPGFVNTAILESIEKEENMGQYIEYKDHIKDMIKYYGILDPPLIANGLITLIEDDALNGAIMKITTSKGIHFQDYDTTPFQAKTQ

| Structure (SMILES) | percent reporter induction over basal at […] ([1]; […]) | inhibition at […] [4, 6] | inhibition at […] [4, 7] | also measured |
| --- | --- | --- | --- | --- |
| Nc1c(C(=O)O)sc2nc(-c3cccs3)cc(-c3ccccc3)c12 [SW206979, 3-Amino-4-phenyl-6-(thiophen-2-yl)thieno[2,3-b]pyridine-2-carboxylic acid] | – | – | – | activation at […] [1, 5]: -12.6%; activation at […] ([1]; read-out: V9M reporter activity ([…]), […], % increased luciferase activity over basal level, read-out: V9M reporter activity (7.5 uM)): -20.6%; activation at […] ([2]; read-out: LS174T reporter activity ([…]), […], % increased luciferase activity over basal level, read-out: LS174T reporter activity (2.5 uM)): 34.3%; activation at […] ([2]; read-out: LS174T reporter activity ([…]), […], % increased luciferase activity over basal level, read-out: LS174T reporter activity (7.5 uM)): 32.8%; activation at […] ([3]; read-out: V503 reporter activity ([…]), […], % increased luciferase activity over basal level, read-out: V503 reporter activity (2.5 uM)): 21.7%; activation at […] ([3]; read-out: V503 reporter activity ([…]), […], % increased luciferase activity over basal level, read-out: V503 reporter activity (7.5 uM)): 42.9% |
| O=C(CN(c1ccccc1)S(=O)(=O)c1ccccc1)Nc1cccnc1 [331727-07-2] | 120% | 9.65% | 17.5% | – |
| COc1ccc(OC)c(N(CC(=O)Nc2cccnc2)S(=O)(=O)c2ccc(C)cc2)c1 [505072-23-1] | 71.5% | 67.4% | 84.6% | – |
| COc1ccc(OC)c(N(CC(=O)Nc2ccc(F)cc2)S(=O)(=O)c2ccccc2)c1 [426231-26-7] | 2.5% | 39.8% | 56.4% | – |
| O=C(CN(c1ccc2c(c1)OCCO2)S(=O)(=O)c1ccccc1)Nc1cccnc1 [701217-00-7] | 79.5% | 10.1% | 13.1% | – |
| COc1ccc(S(=O)(=O)N(CC(=O)Nc2cccc(Br)c2)c2cc(Cl)ccc2OC)cc1OC [compound 771130] | – | – | – | activation at […] [1, 8]: 8.67%; activation at […] [1, 9]: 5.84%; activation at […] [2, 10]: -0.48%; activation at […] [2, 11]: 8.66%; activation at […] [3, 12]: -10.2%; activation at […] [3, 13]: -3.48% |
| COc1ccccc1N(CC(=O)Nc1cccnc1)S(=O)(=O)c1ccccc1 [367929-80-4] | -19% | 8.95% | 34.8% | – |
| CCc1ccc(N(CC(=O)Nc2cccnc2)S(=O)(=O)c2ccccc2)cc1 [461439-84-9] | -41.8% | 9.28% | 3.35% | – |
| COc1ccc(OC)c(N(CC(=O)Nc2ccc(Cl)c(Cl)c2)S(=O)(=O)c2ccccc2)c1 [339589-55-8] | 8% | 19.1% | 22% | – |
| Nc1c([S+]([O-])Cc2ccccc2)sc2nc(-c3cccs3)cc(-c3ccccc3)c12 (stereo not drawn) [SW033292] | – | – | – | activation at […] [1, 5]: 1.51% |
| CCc1ccccc1N(CC(=O)Nc1cccnc1)S(=O)(=O)c1ccccc1 [528580-69-0] | -0.5% | -8.22% | 10.2% | – |
| COc1ccc(S(=O)(=O)N(CC(=O)Nc2cccc(N(C)S(C)(=O)=O)c2)c2cc(Cl)ccc2OC)cc1OC [compound 924787] | – | – | – | activation at […] [1, 8]: -1.45%; activation at […] [1, 9]: 18.1%; activation at […] [2, 10]: 13.1%; activation at […] [2, 11]: 4.32%; activation at […] [3, 12]: 21.9%; activation at […] [3, 13]: 48% |
| COc1ccc(OC)c(N(CC(=O)Nc2ccc(Cl)cc2)S(=O)(=O)c2ccccc2)c1 [339589-53-6] | 4.25% | 35.5% | 37.4% | – |
| COc1cccc(N(CC(=O)Nc2cccnc2)S(=O)(=O)c2ccccc2)c1 [335392-39-7] | 7.18% | 11% | 5.37% | – |
| COc1ccc(OC)c(N(CC(=O)Nc2cccc(Cl)c2)S(=O)(=O)c2ccccc2)c1 [311315-25-0] | – | 18.7% | 34.7% | activation at […] ([2]; read-out: Ls174T-SC1 reporter activity, % ([…]), Table 18, […], read-out: Ls174T-SC1 reporter activity, % (2.5μM)): 62.6%; activation at […] ([2]; read-out: Ls174T-SC1 reporter activity, % ([…]), Table 18, […], read-out: Ls174T-SC1 reporter activity, % (7.5 μM)): 75.8% |
| COc1ccc(Cl)cc1N(CC(=O)Nc1cccnc1)S(=O)(=O)c1ccccc1 [328012-52-8] | 0.51% | 67.4% | 82.1% | – |
| COc1ccc(N(CC(=O)Nc2cccnc2)S(=O)(=O)c2ccccc2)c(OC)c1 [310875-38-8] | -16.4% | 23.5% | 33.4% | – |
| COc1ccc(OC)c(N(CC(=O)NC2CCCCC2)S(=O)(=O)c2ccccc2)c1 [333446-93-8] | 44% | -5.31% | 5.85% | – |

| Structure (SMILES) | percent reporter induction over basal at […] ([1]; […]) | inhibition at […] [4, 6] | inhibition at […] [4, 7] | also measured |
| --- | --- | --- | --- | --- |
| COc1ccc(N(CC(=O)Nc2cccnc2)S(=O)(=O)c2ccccc2)cc1 [418783-65-0] | 67.2% | 10.8% | 12.1% | – |
| COC(=O)c1ccccc1NC(=O)CN(c1cc(OC)ccc1OC)S(=O)(=O)c1ccccc1 [333449-58-4] | 71.2% | 9.72% | -3.12% | – |
| COc1ccc(OC)c(N(CC(=O)Nc2cccnc2)S(=O)(=O)c2ccc(OC)c(OC)c2)c1 [680599-58-0] | -22.5% | 31.8% | 50.7% | – |
| COc1ccc(OC)c(N(CC(=O)Nc2cccnc2)S(C)(=O)=O)c1 [527699-66-7] | -37.2% | -20.6% | 27.9% | – |
| CCOc1ccc(N(CC(=O)Nc2cccnc2)S(=O)(=O)c2ccccc2)cc1 [428473-22-7] | 2.05% | 3.76% | 8.67% | – |
| COc1ccc(OC)c(N(CC(=O)Nc2cncc(Cl)c2)S(=O)(=O)c2ccccc2)c1 [SW202990] | – | – | – | inhibition at […] [4, 14]: 22.9%; inhibition at […] [4, 15]: 47.2% |
| COc1ccc(OC)c(N(CC(=O)Nc2ccccn2)S(=O)(=O)c2ccccc2)c1 [SW202941] | – | – | – | inhibition at […] [4, 14]: 10.9%; inhibition at […] [4, 15]: 35.6% |
| COc1ccc(OC)c(N(CC(=O)Nc2cnccn2)S(=O)(=O)c2ccccc2)c1 [SW203681] | – | – | – | inhibition at […] [4, 14]: 36.8%; inhibition at […] [4, 15]: 64.9% |
| COc1ccc(OC)c(N(CC(=O)N2CCCc3ccccc32)S(=O)(=O)c2ccccc2)c1 [SW208006] | – | – | – | inhibition at […] [4, 14]: 15.7%; inhibition at […] [4, 15]: 24.8% |
| COc1ccc(OC)c(N(CC(=O)Nc2ccc(C)cc2)S(=O)(=O)c2ccccc2)c1 [311333-86-5] | 117% | 34% | – | – |
| COc1ccc(OC)c(N(CC(=O)O)S(=O)(=O)c2ccccc2)c1 [SW122063] | – | – | – | inhibition at […] [4, 14]: -12.2%; inhibition at […] [4, 15]: -10.5% |
| COc1ccc(OC)c(N(CC(=O)Nc2ccnnc2)S(=O)(=O)c2ccccc2)c1 [SW203685] | – | – | – | inhibition at […] [4, 14]: 44.3%; inhibition at […] [4, 15]: 73.3% |
| COc1ccc(OC)c(N(C(C)C(=O)Nc2cccnc2)S(=O)(=O)c2ccccc2)c1 (stereo not drawn) [SW202991] | – | – | – | inhibition at […] [4, 14]: -14.7%; inhibition at […] [4, 15]: -6% |
| COc1ccc(OC)c(N(CC(=O)Nc2ccccc2C(N)=O)S(=O)(=O)c2ccccc2)c1 [530107-57-4] | 116% | 21.7% | 9.25% | – |
| COC(=O)CN(c1cc(OC)ccc1OC)S(=O)(=O)c1ccccc1 [SW202980] | – | – | – | inhibition at […] [4, 14]: -4.19%; inhibition at […] [4, 15]: 1.44% |
| COc1ccc(OC)c(N(CC(=O)Nc2cccnc2C)S(=O)(=O)c2ccccc2)c1 [SW202968] | – | – | – | inhibition at […] [4, 14]: -7.09%; inhibition at […] [4, 15]: 0.78% |
| O=C(CN(c1cc(Cl)ccc1Cl)S(=O)(=O)c1ccccc1)Nc1cccnc1 [833428-03-8] | 17.4% | 16.4% | 49.2% | – |
| COc1ccc(OC)c(N(CC(=O)Nc2cccnc2)S(=O)(=O)c2ccccc2C)c1 [SW202943] | – | – | – | inhibition at […] [4, 14]: -7.42%; inhibition at […] [4, 15]: 21.8% |
